*1 amine or outer side, *2 acyl side, *3 side chain or, on linkers, in order; H or OH if unused. Where a SMILES comes first, the peptide text is derived from it. Bridges are numbered along the chain shown (N, C = ends). [ ]: non-standard residue; d: D form. The star is where a group is joined. DOTA = O=C(O)CN1CCN(CC(=O)O)CCN(CC(=O)*)CCN(CC(=O)O)CC1; 2Lut = 2,6-lutidylidene bridge between two thiols; Trp(5-Cl) = N[C@@H](Cc1c[nH]c2ccc(Cl)cc12)C(=O)O; Pyridine(2,6-diCH2) = c1cc(C[*:1])nc(C[*:2])c1; X10 = O=C(CN(CC(=O)NC(CO)CO)CC(=O)*)NC(CO)CO; Pro(4R-NH2) = N[C@H]1CN[C@H](C(=O)O)C1; Thz(5,5-Me2) = CC1(C)SCN[C@@H]1C(=O)O; Hyp = O=C(O)[C@@H]1C[C@@H](O)CN1; X1 = O=C(CN1CCC(N[*:1])CC1)[*:2]; hArg = N=C(N)NCCCC[C@H](N)C(=O)O; hLys = NCCCCC[C@H](N)C(=O)O; NHCH(CH2OH)2 = OCC(CO)N*; Api = NC1(C(=O)O)CCNCC1; Thp = NC1(C(=O)O)CCOCC1
T1: human GIP receptor (bioGIPR) (Homo sapiens, UniProt P48546)
T1 construct: Biotinylate extracellular of the human GIP receptor (bioGIPR, Proteros biostructures GmbH, lot #02/2b); purchased Proteros biostructures GmbH lot #02/2b
T1 sequence (P48546 22-138 limits assumed): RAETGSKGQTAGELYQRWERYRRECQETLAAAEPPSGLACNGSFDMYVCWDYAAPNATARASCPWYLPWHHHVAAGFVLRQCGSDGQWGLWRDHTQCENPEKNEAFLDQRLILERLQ

T2: GIPR (CHO-K1-hGIPR cells) (Homo sapiens, UniProt P48546)
T2 construct: host or cells: CHO-K1
T2 sequence (P48546 22-466): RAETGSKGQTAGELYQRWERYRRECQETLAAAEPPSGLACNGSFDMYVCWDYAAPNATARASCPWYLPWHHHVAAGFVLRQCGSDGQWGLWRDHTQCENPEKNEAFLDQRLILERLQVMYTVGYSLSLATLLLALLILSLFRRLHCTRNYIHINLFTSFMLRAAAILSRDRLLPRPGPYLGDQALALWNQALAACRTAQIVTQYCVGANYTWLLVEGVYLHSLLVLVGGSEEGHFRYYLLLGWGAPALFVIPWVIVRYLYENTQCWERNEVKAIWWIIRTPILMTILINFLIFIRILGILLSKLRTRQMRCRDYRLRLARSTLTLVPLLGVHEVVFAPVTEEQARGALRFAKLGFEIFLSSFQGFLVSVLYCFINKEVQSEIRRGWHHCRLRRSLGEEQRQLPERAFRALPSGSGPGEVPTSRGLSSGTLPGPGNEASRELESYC


Columns and labels:
[1] = molecular target: T1, human GIP receptor (bioGIPR); test: Surface plasmon resonance (SPR) based binding assay; conditions: Single Cycle Kinetic mode, 25° C.; for t1/2 Category: SPR dissociation half-life; for Kd: SPR, 1:1 Langmuir binding model, read-out: pKD Category (converted)
How it was run: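 Binding was measured at 25 °C by single-cycle kinetics against a reference flow cell, with blank-run and drift correction, after capturing biotinylated GIPR extracellular domain to ~3500 RU. Running buffer: HBST, 0.1% DMSO. A 1:1 Langmuir model gave kinetic rates, KD, t1/2 and pKD.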

[2] = molecular target: T2, GIPR (CHO-K1-hGIPR cells); test: FACS binding assay; conditions: competition with 20 nM GIP-057, 4° C. for 1 hour, read-out: pIC50 Category (converted)
How it was run: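 Read-out: flow cytometric median fluorescence intensity, APC/Cy5 channel, plotted vs peptide conc.; 4PL fit → EC50/pEC50 or IC50/pIC50. Cells: CHO-K1-hGIPR, Accutase-detached, 500.000/mL in PBS + 1% FCS. Detection: APC-streptavidin 1 μg/mL, 30 min, on ice.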

[3] = molecular target: human Gastric Inhibitory Peptide Receptor (GIPR) (human) (UniProt P48546); test: FACS competition vs biotinylated GIP-057 on CHO-K1-hGIPR cells; category A: pIC50 >8.0

| t1/2 Category [1] | Kd [1] | IC50 [2] | pIC50 [3] | Molecule |
| --- | --- | --- | --- | --- |
| A (t1/2 values>15 min) | 1 to 7.94 nM | < 10 nM |  | CC[C@H](C)[C@@H]1NC(=O)[C@H](CC(C)C)NC(=O)C2(CCOCC2)NC(=O)[C@@H](NC(=O)[C@@H](CC(C)C)NC(=O)[C@H](Cc2c[nH]cn2)NC(=O)[C@@H]2C[C@@H](O)CN2C(=O)[C@H](Cc2c[nH]c3ccc(Cl)cc23)NC(=O)[C@H](Cc2c[nH]c3ccccc23)NC(=O)[C@H](CC(=O)O)NC(C)=O)CSCc2cccc(n2)CSC[C@@H](C(N)=O)NC1=O [GIP-377, Ac-Asp-Trp-5Clw-Hyp-His-leu-[Cys(2Lut)-Thp-Leu-Ile-Cys]-NH2] (Ac-DW[Trp(5-Cl)][Hyp]H[dL]C[Thp]LIC-NH2; linker 7-11 via Pyridine(2,6-diCH2)) |
| A (t1/2 values>15 min) | 1 to 7.94 nM | < 10 nM |  | CC[C@H](C)[C@@H]1NC(=O)[C@H](CC(C)C)NC(=O)C2(CCOCC2)NC(=O)[C@@H](NC(=O)[C@@H](CC(C)C)NC(=O)[C@H](CCCCCN)NC(=O)[C@@H]2C[C@@H](O)CN2C(=O)[C@H](Cc2c[nH]c3ccc(Cl)cc23)NC(=O)[C@H](Cc2c[nH]c3ccccc23)NC(=O)[C@H](CC(=O)O)NC(C)=O)CSCc2cccc(n2)CSC[C@@H](C(N)=O)NC1=O [GIP-378, Ac-Asp-Trp-5Clw-Hyp-Hly-leu-[Cys(2Lut)-Thp-Leu-Ile-Cys]-NH2] (Ac-DW[Trp(5-Cl)][Hyp][hLys][dL]C[Thp]LIC-NH2; linker 7-11 via Pyridine(2,6-diCH2)) |
| A (t1/2 values>15 min) | 1 to 7.94 nM | 10 to 79.4 nM |  | CC[C@H](C)[C@@H]1NC(=O)[C@H](CC(C)C)NC(=O)C2(CCOCC2)NC(=O)[C@@H](NC(=O)[C@@H](CC(C)C)NC(=O)[C@H](CCCCNC(=N)N)NC(=O)[C@@H]2C[C@@H](O)CN2C(=O)[C@H](Cc2c[nH]c3ccc(Cl)cc23)NC(=O)[C@H](Cc2c[nH]c3ccccc23)NC(=O)[C@H](CC(=O)O)NC(C)=O)CSCc2cccc(n2)CSC[C@@H](C(N)=O)NC1=O [GIP-395, Ac-Asp-Trp-5Clw-Hyp-Har-leu-[Cys(2Lut)-Thp-Leu-Ile-Cys]-NH2] (Ac-DW[Trp(5-Cl)][Hyp][hArg][dL]C[Thp]LIC-NH2; linker 7-11 via Pyridine(2,6-diCH2)) |

Second part, the molecule before the results:

| Molecule | t1/2 Category [1] | Kd [1] | IC50 [2] | pIC50 [3] |
| --- | --- | --- | --- | --- |
| CC[C@H](C)[C@@H]1NC(=O)[C@H](CC(C)C)NC(=O)C2(CCN(C(=O)CN3CCN(CC(=O)O)CCN(CC(=O)O)CCN(CC(=O)O)CC3)CC2)NC(=O)[C@@H](NC(=O)[C@@H](CC(C)C)NC(=O)[C@H](CCC(=O)O)NC(=O)[C@@H]2C[C@@H](N)CN2C(=O)[C@H](Cc2c[nH]c3ccc(Cl)cc23)NC(=O)[C@H](Cc2c[nH]c3ccccc23)NC(=O)[C@H](CC(=O)O)NC(=O)CN(CC(=O)NC(CO)CO)CC(=O)NC(CO)CO)CSCc2cccc(n2)CSC[C@@H](C(=O)NC2CCN(CC(=O)N[C@H](CCC(=O)NC(CO)CO)C(=O)NC(CO)CO)CC2)NC1=O [GIP-374, NTASEROL-Asp-Trp-5Clw-Tap-Glu-leu-[Cys(2Lut)-Apc(DOTA)-Leu-Ile-Cys]-APAc-GLUSEROL] (X10-DW[Trp(5-Cl)][Pro(4R-NH2)]E[dL]C[Api](DOTA)LIC[X1][dE](NHCH(CH2OH)2)-{NHCH(CH2OH)2}; linker 7-11 via Pyridine(2,6-diCH2)) | A (t1/2 values>15 min) | < 1 nM | < 10 nM |  |
| CC[C@H](C)[C@@H]1NC(=O)[C@H](CC(C)C)NC(=O)C2(CCOCC2)NC(=O)[C@@H](NC(=O)[C@@H](CC(C)C)NC(=O)[C@H](CCCCN)NC(=O)[C@@H]2C[C@@H](O)CN2C(=O)[C@H](Cc2c[nH]c3ccc(Cl)cc23)NC(=O)[C@H](Cc2c[nH]c3ccccc23)NC(=O)[C@H](CC(=O)O)NC(C)=O)CSCc2cccc(n2)CSC[C@@H](C(N)=O)NC1=O [GIP-375, Ac-Asp-Trp-5Clw-Hyp-Lys-leu-[Cys(2Lut)-Thp-Leu-Ile-Cys]-NH2] (Ac-DW[Trp(5-Cl)][Hyp]K[dL]C[Thp]LIC-NH2; linker 7-11 via Pyridine(2,6-diCH2)) | A (t1/2 values>15 min) | 1 to 7.94 nM | < 10 nM |  |
| CC[C@H](C)[C@@H]1NC(=O)[C@H](CC(C)C)NC(=O)C2(CCOCC2)NC(=O)[C@@H](NC(=O)[C@@H](CC(C)C)NC(=O)[C@H](CCCNC(=N)N)NC(=O)[C@@H]2C[C@@H](O)CN2C(=O)[C@H](Cc2c[nH]c3ccc(Cl)cc23)NC(=O)[C@H](Cc2c[nH]c3ccccc23)NC(=O)[C@H](CC(=O)O)NC(C)=O)CSCc2cccc(n2)CSC[C@@H](C(N)=O)NC1=O [GIP-376, Ac-Asp-Trp-5Clw-Hyp-Arg-leu-[Cys(2Lut)-Thp-Leu-Ile-Cys]-NH2] (Ac-DW[Trp(5-Cl)][Hyp]R[dL]C[Thp]LIC-NH2; linker 7-11 via Pyridine(2,6-diCH2)) | A (t1/2 values>15 min) | 1 to 7.94 nM | < 10 nM |  |
| {HO‑Glutar}-W[Trp(5-Cl)][Hyp]E[dL]C[Thp]LIC-NH2 (linker 6-10 via 2Lut) [HO-Glutar-Trp-5Clw-Hyp-Glu-leu-[Cys(2Lut)-Thp-Leu-Ile-Cys]-NH2] |  |  |  | > 8 pic50 |
| Ac-DW[Trp(5-Cl)][Thz(5,5-Me2)]E[dL]C[Thp]LIC-NH2 (linker 7-11 via Pyridine(2,6-diCH2)) [Ac-Asp-Trp-5Clw-Dtc-Glu-leu-[Cys(2Lut)-Thp-Leu-Ile-Cys]-NH2] |  |  |  | > 8 pic50 |
